Data taken from article PMC8223498 (Journal of Fluorine Chemistry, 2021).

How the values were obtained:
Assay type in all cases: biochemical
[1] = target: T1, human N-terminally His6-tagged AspH315–758 (Homo sapiens, UniProt Q12797); test: SPE-MS inhibition assay, AspH (peptide hydroxylation); conditions: 0.05 μM His6-AspH315–758, 1.0 μM hFX-CP101–119 peptide, n = 2, mean ± SD
T1 sequence (Q12797 315-758): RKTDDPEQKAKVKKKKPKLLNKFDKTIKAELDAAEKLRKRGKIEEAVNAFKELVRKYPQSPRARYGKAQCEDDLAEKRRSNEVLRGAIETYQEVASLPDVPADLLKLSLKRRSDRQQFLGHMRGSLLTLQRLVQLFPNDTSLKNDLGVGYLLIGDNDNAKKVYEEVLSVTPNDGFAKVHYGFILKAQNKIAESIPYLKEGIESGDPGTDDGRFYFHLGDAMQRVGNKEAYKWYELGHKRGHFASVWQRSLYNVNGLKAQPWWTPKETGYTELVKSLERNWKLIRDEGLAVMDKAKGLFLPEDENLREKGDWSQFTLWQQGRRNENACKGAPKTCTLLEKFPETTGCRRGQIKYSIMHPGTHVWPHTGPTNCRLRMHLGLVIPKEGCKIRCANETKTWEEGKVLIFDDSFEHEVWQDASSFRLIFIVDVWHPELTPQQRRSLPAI
Description: (§1) KDM4E was used as a representative JmjC KDM; it catalyzes the demethylation of histone 3 (H3) N^ε-di- and trimethylated Lys9 (H3K9me3/me2), [11], [12].
(§2) 2OG oxygenases were produced and purified as described in the cited literature, the peptide substrate for AspH was synthesized according to the cited literature while the peptide substrates for FIH and KDM4E were obtained from GL Biochem (Shanghai) Ltd (Shanghai, China). All peptide were prepared with C-terminal amides.

[2] = target: T2, N-terminally His6-tagged FIH (Homo sapiens, UniProt Q9NWT6); test: SPE-MS inhibition assay, FIH (peptide hydroxylation); conditions: 5.0 μM HIF-1α CAD (788–822), n = 2, mean ± SD, inactive = no inhibition at 100 – 0.002 μM
T2 construct: His6 (N); made in house
T2 sequence (Q9NWT6 whole entry): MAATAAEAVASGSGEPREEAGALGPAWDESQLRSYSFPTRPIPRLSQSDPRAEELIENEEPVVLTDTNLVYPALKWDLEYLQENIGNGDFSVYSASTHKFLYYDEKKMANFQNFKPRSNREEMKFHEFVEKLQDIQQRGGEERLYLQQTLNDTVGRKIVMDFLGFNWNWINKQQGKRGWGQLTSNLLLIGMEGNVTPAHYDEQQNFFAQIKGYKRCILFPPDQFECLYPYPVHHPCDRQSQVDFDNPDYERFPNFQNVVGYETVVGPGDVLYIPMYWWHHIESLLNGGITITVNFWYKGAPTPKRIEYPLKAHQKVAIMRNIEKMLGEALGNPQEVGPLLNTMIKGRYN
Description: as §1, §2

[3] = target: T3, KDM4E (Homo sapiens, UniProt B2RXH2); test: SPE-MS inhibition assay, KDM4E (peptide demethylation); conditions: 10.0 μM H3_1–15K9me3, n = 2, mean ± SD, inactive = no inhibition at 100 – 0.002 μM
T3 sequence (B2RXH2 1-506): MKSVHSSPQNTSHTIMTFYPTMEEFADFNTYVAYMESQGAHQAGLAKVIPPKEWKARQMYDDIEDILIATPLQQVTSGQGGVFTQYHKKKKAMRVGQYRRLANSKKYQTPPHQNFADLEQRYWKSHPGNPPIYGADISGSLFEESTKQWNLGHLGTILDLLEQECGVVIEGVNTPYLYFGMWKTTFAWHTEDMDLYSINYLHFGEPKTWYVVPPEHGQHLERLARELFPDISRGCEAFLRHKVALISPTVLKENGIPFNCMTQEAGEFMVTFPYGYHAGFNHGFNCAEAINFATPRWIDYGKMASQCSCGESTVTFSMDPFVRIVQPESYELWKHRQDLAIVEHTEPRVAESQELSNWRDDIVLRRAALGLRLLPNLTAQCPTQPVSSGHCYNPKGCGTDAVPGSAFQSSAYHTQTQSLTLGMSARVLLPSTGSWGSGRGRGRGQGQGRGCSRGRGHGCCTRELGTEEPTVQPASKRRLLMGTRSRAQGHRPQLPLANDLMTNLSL
Description: as §1, §2

[4] = target: recombinant human N-terminally His6-tagged RIOX2_26–465 (Homo sapiens, UniProt Q8IUF8); test: SPE-MS inhibition assay, RIOX2 (peptide hydroxylation); conditions: n = 2, mean ± SD, inactive = no inhibition at 100 – 0.002 μM; for IC50: 0.15 μM His6-RIOX2_26–465, 5.0 μM RPL27A31–49 peptide; for IC50 RIOX2: […] His6-RIOX2_26–465, 5.0 μM RPL27A31–49 peptide
Chain of recombinant human N-terminally His6-tagged RIOX2_26–465 (Q8IUF8 26-465): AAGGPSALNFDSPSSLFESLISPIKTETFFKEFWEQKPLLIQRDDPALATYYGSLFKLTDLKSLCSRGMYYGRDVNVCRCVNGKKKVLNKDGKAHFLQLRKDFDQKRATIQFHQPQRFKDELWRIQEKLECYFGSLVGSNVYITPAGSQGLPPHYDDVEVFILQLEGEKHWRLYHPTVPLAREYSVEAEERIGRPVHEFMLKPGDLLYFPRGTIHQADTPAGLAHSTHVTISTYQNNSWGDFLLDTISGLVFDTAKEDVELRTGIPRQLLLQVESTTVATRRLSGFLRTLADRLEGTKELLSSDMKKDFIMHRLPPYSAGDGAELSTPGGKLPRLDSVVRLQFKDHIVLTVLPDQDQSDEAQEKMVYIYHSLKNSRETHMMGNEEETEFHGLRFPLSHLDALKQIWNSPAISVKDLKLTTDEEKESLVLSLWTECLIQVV

SMILES	IC50 [1]	IC50 [2]	IC50 [3]	IC50 [4]	IC50 FIH [2]	IC50 KDM4E [3]	IC50 RIOX2 [4]
O=C(O)c1ccnc(C(=O)O)c1 [2,4-PDCA, pyridine-2,4-dicarboxylate, reference compound]	~0.03 µM						
O=C(O)c1ccnc(C(=O)O)c1F [compound 7, 3-Fluoropyridine-2,4-dicarboxylic acid]	0.11 ± 0.01 µM	> 50 µM	1.3 ± 0.2 µM	> 50 µM			
O=C(O)c1cc(C(=O)O)c(F)cn1 [compound 8, 5-Fluoropyridine-2,4-dicarboxylic acid]	0.05 ± 0.01 µM	> 50 µM	1.6 ± 0.3 µM	> 50 µM			
O=C(O)c1ccnc(C(=O)O)c1C(F)(F)F [compound 13, 3-Trifluoromethylpyridine-2,4-dicarboxylic acid]	> 50 µM				^d)inactive	^d)inactive	^d)inactive
O=C(O)c1cc(C(=O)O)c(C(F)(F)F)cn1 [compound 14, 5-Trifluoromethylpyridine-2,4-dicarboxylic acid]	4.2 ± 1 µM				^d)inactive	^d)inactive	^d)inactive
